# Source: publication PMC9146423, “Discovery of Nitro-azolo[1,5-a]pyrimidines with Anti-Inflammatory and Protective Activity against LPS-Induced Acute Lung Injury” (Pharmaceuticals, 2022)
# Columns and labels:
# [1] = test system: LPS-stimulated peritoneal macrophages of C57bl/6j mice; experiment: IL-6 secretion by LPS-stimulated peritoneal macrophages (ELISA); format: cell-based; conditions: Mus musculus, Peritoneal macrophage, 95% C.I. 1.43-9.87 μM
# Method: Peritoneal macrophages (PM) were isolated from the peritoneal exudate of 30 male C57bl/6j mice. To accumulate PM, 1 mL of 3% peptone solution was injected intraperitoneally. After 3 days, the mice were euthanized by cervical dislocation. Cells of peritoneal exudate were obtained by aseptic washing of the abdominal cavity with 5 mL of sterile Hanks’s solution (+4–6 °C) without calcium and magnesium ions. The total number and viability of cells were assessed in a Goryaev counting chamber (Russia) with a 0.4% trypan blue staining (Sigma-Aldrich, St. Louis, MO, USA). The cell concentration was adjusted to 1.0 × 10^6 cells/mL in DMEM (Gibco) supplemented with 2 mM L-glutamine (Gibco, Waltham, MA, USA), 10% heat-inactivated fetal bovine serum (BioClot, Bavaria, Germany), 100 U/mL penicillin, and […] streptomycin (Gibco) and plated 200 μL/well in 96-well transparent plates (SPL Life Sciences Co., Ltd., Pocheon-si, Korea). After 2 h at 37 °C in a humidified atmosphere with 5% CO2, the wells were washed to remove non-adherent cells. […]
# The cell supernatant was collected and centrifuged at 1000 g for 20 min in a 2–16PK centrifuge (Sigma, Osterode am Harz, Germany). The concentrations of IL-6 and TNF-α were determined by ELISA using commercial kits (Cloud-clone, Houston, TX, USA) with a microplate reader Infinite M200 PRO (Tecan, Grödig, Austria).
# [2] = test system: peritoneal macrophages of C57bl/6j mice; experiment: Yeast phagocytosis assay and macrophage spreading; format: cell-based, mouse
# Method: Next, we evaluated lead compound 9g for immunodepressant activity in parallel with the reference drug dexamethasone. Yeast phagocytosis was assessed by microscopic examination as the number of phagocytes per 100 macrophages and as the number of phagocytosed yeast cells in each phagocyte. Cell viability was assessed as lactate dehydrogenase activity in cell supernatants, which correlates with increased cell membrane permeability.
# Peritoneal macrophages of C57bl/6j mice were cultured in a 24-well plate at a volume of 500 μL/well (1 × 10^5 cells/mL) for 24 h. Test compounds or DMSO were added to wells in triplicate followed by 50 μL of 1% yeast suspension, and the plates were incubated for 40 min. After 24 or 72 h, the medium was removed. The cells were fixed with May–Grunwald methanol dye and stained with Azur-Eosin in Romanovsky’s modification for 45 min at room temperature, washed, air-dried, and analyzed using a microscope Mikmed-6 (Russia), equipped with a digital camera. The study was performed in three technical replicates and two series; 100 macrophages were processed in each sample to count the captured yeast cells. Macrophage spreading was assessed as a number of pseudopodia.
structure (smiles),measurement,setting,value
"Cc1nc2nnnn2c(NCCc2ccc(O)cc2)c1[N+](=O)[O-] [Compound 9g, N-[2-(4-Hydroxyphenyl)ethyl]-5-methyl-6-nitrotetrazolo-[1,5-a]pyrimidin-7-amine]",IC50,[1],3.72 µM
same,Suppression of phagocytosis,"[2]; after 24-h of incubation, data not shown",not
same,Decrease of the mean number of phagocytosed yeast cells,[2]; after 72 h of incubation,16%
same,Macrophage phagocytic activity (in words),[2]; after 72 h of incubation,preserved macrophage phagocytic activity
same,Macrophage spreading,"[2]; yeast-stimulated, visually scored",reduced it to a nearly unstimulated level
